One test addresses memapsin 2 (Homo sapiens, UniProt P56817). Nature of the test: Inhibition of memapsin 2 beta-secretase activity (fluorogenic substrate FS-2). Type of test: biochemical. The conditions noted are these: memapsin 2, pH 4, 37° C., read-out: M2Ki. The gist of the method: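 Kinetic fluorogenic assay: hydrolysis of the MCA/DNP-labelled APP Swedish-variant peptide FS-2 monitored as fluorescence rise at 37° C, pH 4, after 20 min enzyme–compound preincubation. Relative rates fitted with a tight-binding inhibitor model.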

Test [1] has as its system Aβ production in Chinese hamster ovary cells that over-express human APP695 with the London and Swedish mutations. As to the kind of experiment: Cellular Aβ IC50 determination (Aβ40 sandwich ELISA). The following applies: cellular Aβ production, read-out: IC50. It counts as cell-based. As for the experimental part: The potency of compounds against memapsin 2 activity was determined in a cellular assay of Aβ production. […] Chinese hamster ovary cells that over-express human APP695 with the London and Swedish mutations were seeded in multi-well plates at 10% confluency. Compounds are dissolved in DMSO to concentrations near 1 mM, and diluted into culture media to a final concentration near 4 μM (final 0.4% DMSO). […] Aliquots were removed and assayed for Aβ40 content using a sandwich ELISA (BioSource International). Amount of Aβ40 over the range of concentration of compounds, relative to control incubations, were fit to a 4-parameter IC50 model.
For orientation: ELISA stands for enzyme-linked immunosorbent assay.

Read-outs that look alike come from different tables or passages of the source. Where only a bound is given, the exact number is not on record here.

Sequence of memapsin 2 (P56817 46-501): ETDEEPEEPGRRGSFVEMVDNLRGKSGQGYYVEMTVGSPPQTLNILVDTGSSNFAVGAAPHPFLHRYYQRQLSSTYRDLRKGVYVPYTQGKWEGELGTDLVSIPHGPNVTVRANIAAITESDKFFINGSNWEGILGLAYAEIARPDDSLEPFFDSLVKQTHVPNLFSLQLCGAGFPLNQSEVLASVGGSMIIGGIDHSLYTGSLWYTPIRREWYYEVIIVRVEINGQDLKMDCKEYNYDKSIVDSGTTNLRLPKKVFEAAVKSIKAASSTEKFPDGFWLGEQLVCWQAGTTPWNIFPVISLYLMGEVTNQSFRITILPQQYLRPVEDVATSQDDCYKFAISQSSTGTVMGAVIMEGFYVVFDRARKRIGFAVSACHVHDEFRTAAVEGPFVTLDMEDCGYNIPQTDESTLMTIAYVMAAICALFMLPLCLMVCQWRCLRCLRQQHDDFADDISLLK

`COc1cccc(CN(C)C[C@@H](O)[C@H](Cc2ccccc2)NC(=O)c2cccc(C(=O)N(C)Cc3nc(C)cs3)c2)c1` [Compound 1, N^1-((2S,3R)-3-hydroxy-4-((3-methoxybenzyl)(methyl)amino)-1-phenylbutan-2-yl)-N^3-methyl-N^3-((4-methylthiazol-2-yl)methyl)isophthalamide]: the Ki on memapsin 2 (20 minutes pre-incubation) is less than 300 nM. Moreover, the concentration for half-maximal inhibition (IC50) – broadly, the concentration that gives 50% inhibition – in test [1] is less than 1000 nM.
With `COc1cccc(CNC[C@@H](O)[C@H](Cc2ccccc2)NC(=O)c2cc(C(=O)N(C)Cc3nc(C)cs3)cc(C(C)(C)C)c2)c1` [Compound 2, 5-tert-butyl-N1-((2S,3R)-3-hydroxy-4-(3-methoxybenzylamino)-1-phenylbutan-2-yl)-N3-methyl-N3-((4-methylthiazol-2-yl)methyl)isophthalamide], on memapsin 2 (20 minutes pre-incubation), the Ki is less than 300 nM. For the same compound, the IC50 in test [1] (Cricetulus griseus) was less than 1000 nM.
For `COc1cccc(CNC[C@@H](O)[C@H](Cc2ccccc2)NC(=O)c2cc(F)cc(C(=O)N(C)Cc3nc(C)cs3)c2)c1` [Compound 4, 5-fluoro-N1-((2S,3R)-3-hydroxy-4-(3-methoxybenzylamino)-1-phenylbutan-2-yl)-N3-methyl-N3-((4-methylthiazol-2-yl)methyl)isophthalamide], at memapsin 2 (20 minutes pre-incubation), the Ki is less than 300 nM. For the same compound, in test [1] (Cricetulus griseus), the IC50 was less than 1000 nM.
Regarding `Cc1csc(CN(C)C(=O)c2cccc(C(=O)N[C@@H](Cc3ccccc3)[C@H](O)CNCc3cc(C(C)C)ccn3)c2)n1` [Compound 5, N1-((2S,3R)-3-hydroxy-4-((4-isopropylpyridin-2-yl)methylamino)-1-phenylbutan-2-yl)-N3-methyl-N3-((4-methylthiazol-2-yl)methyl)isophthalamide], the Ki on memapsin 2 (20 minutes pre-incubation) was less than 300 nM. Further, the IC50 in test [1] (Cricetulus griseus) was less than 1000 nM.
On the same counts, the results for `COc1cccc(CNC[C@@H](O)[C@H](Cc2ccccc2)NC(=O)c2cccc(C(=O)N(C)Cc3ncc(C)s3)c2)c1` [Compound 6, N1-((2S,3R)-3-hydroxy-4-(3-methoxybenzylamino)-1-phenylbutan-2-yl)-N3-methyl-N3-((5-methylthiazol-2-yl)methyl)isophthalamide] are more than 501 nM and more than 5000 nM.
Turning to `COc1cccc(CNC[C@@H](O)[C@H](Cc2ccccc2)NC(=O)c2cc(C)cc(C(=O)N(Cc3nc(C)cs3)C3CC3)c2)c1` [Compound 9, N1-cyclopropyl-N3-((2S,3R)-3-hydroxy-4-(3-methoxybenzylamino)-1-phenylbutan-2-yl)-5-methyl-N1-((4-methylthiazol-2-yl)methyl)isophthalamide], the Ki at memapsin 2 (20 minutes pre-incubation) is less than 300 nM. For the same compound, the IC50 in test [1] (Cricetulus griseus) is less than 1000 nM.
For the compound `Cc1csc(CN(C)C(=O)c2cccc(C(=O)N[C@@H](Cc3ccccc3)[C@H](O)CNCc3cccc(C(C)C)n3)c2)n1` [Compound 10, N1-((2S,3R)-3-hydroxy-4-((6-isopropylpyridin-2-yl)methylamino)-1-phenylbutan-2-yl)-N3-methyl-N3-((4-methylthiazol-2-yl)methyl)isophthalamide], the Ki on memapsin 2 (20 minutes pre-incubation) is less than 300 nM. For the same compound, the IC50 in test [1] (Cricetulus griseus) was less than 1000 nM.
With `CCCN(Cc1nc(C)cs1)C(=O)c1cccc(C(=O)N[C@@H](Cc2ccccc2)[C@H](O)CNCc2cccc(OC)c2)c1` [Compound 11, N1-((2S,3R)-3-hydroxy-4-(3-methoxybenzylamino)-1-phenylbutan-2-yl)-N3-((4-methylthiazol-2-yl)methyl)-N3-propylisophthalamide], at memapsin 2 (20 minutes pre-incubation), the Ki is less than 300 nM. Also, the IC50 in test [1] (Cricetulus griseus) was less than 1000 nM.
Turning to `Cc1csc(CN(C)C(=O)c2cccc(C(=O)N[C@@H](Cc3ccccc3)[C@H](O)CNCc3cccc(C4CC4)c3)c2)n1` [Compound 12, N1-((2S,3R)-4-(3-cyclopropylbenzylamino)-3-hydroxy-1-phenylbutan-2-yl)-N3-methyl-N3-((4-methylthiazol-2-yl)methyl)isophthalamide], the Ki at memapsin 2 (20 minutes pre-incubation) is less than 300 nM. Moreover, the IC50 in test [1] (Cricetulus griseus) is less than 1000 nM.
Regarding `CCN(Cc1nc(C)cs1)C(=O)c1cc(OC)cc(C(=O)N[C@@H](Cc2ccccc2)[C@H](O)CNCc2cccc(OC)c2)c1` [Compound 16, N1-ethyl-N3-((2S,3R)-3-hydroxy-4-(3-methoxybenzylamino)-1-phenylbutan-2-yl)-5-methoxy-N1-((4-methylthiazol-2-yl)methyl)isophthalamide], at memapsin 2 (20 minutes pre-incubation), the Ki was less than 300 nM. Besides, the IC50 in test [1] (Cricetulus griseus) is less than 1000 nM.
On the same counts, the results for `COc1cccc(CNC[C@@H](O)[C@H](Cc2ccccc2)NC(=O)c2cccc(C(=O)N(C)Cc3ccc(C)o3)c2)c1` [Compound 18, N1-((2S,3R)-3-hydroxy-4-(3-methoxybenzylamino)-1-phenylbutan-2-yl)-N3-methyl-N3-((5-methylfuran-2-yl)methyl)isophthalamide] are 301 to 500 nM and less than 1000 nM.
As for `COc1cccc(CNC[C@@H](O)[C@H](Cc2ccccc2)NC(=O)c2cc(C(=O)O)cc(C(=O)N(C)Cc3nc(C)cs3)c2)c1` [Compound 19, 3-((2S,3R)-3-hydroxy-4-(3-methoxybenzylamino)-1-phenylbutan-2-ylcarbamoyl)-5-(methyl((4-methylthiazol-2-yl)methyl)carbamoyl)benzoic acid], the Ki at memapsin 2 (20 minutes pre-incubation) was less than 300 nM. In addition, the IC50 in test [1] (Cricetulus griseus) is less than 1000 nM.
As for `C=C(C)c1cncc(CNC[C@@H](O)[C@H](Cc2ccccc2)NC(=O)c2cccc(C(=O)N(C)Cc3nc(C)cs3)c2)c1` [Compound 22, N1-((2S,3R)-3-hydroxy-1-phenyl-4-((5-(prop-1-en-2-yl)pyridin-3-yl)methylamino)butan-2-yl)-N3-methyl-N3-((4-methylthiazol-2-yl)methyl)isophthalamide], the Ki on memapsin 2 (20 minutes pre-incubation) was less than 300 nM. Besides, the IC50 in test [1] (Cricetulus griseus) was less than 1000 nM.
On to `Cc1csc(CN(C)C(=O)c2cccc(C(=O)N[C@@H](Cc3ccccc3)[C@H](O)CNCc3cncc(C(F)(F)F)c3)c2)n1` [Compound 23, N1-((2S,3R)-3-hydroxy-1-phenyl-4-((5-(trifluoromethyl)pyridin-3-yl)methylamino)butan-2-yl)-N3-methyl-N3-((4-methylthiazol-2-yl)methyl)isophthalamide], for which the Ki on memapsin 2 (20 minutes pre-incubation) was less than 300 nM. In addition, the IC50 in test [1] (Cricetulus griseus) is less than 1000 nM.
In the case of `Cc1csc(CN(C)C(=O)c2cccc(C(=O)N[C@@H](Cc3ccccc3)[C@H](O)CNCc3cncc(C(C)CO)c3)c2)n1` (stereo partly drawn) [Compound 314, N1-((2S,3R)-3-hydroxy-4-((5-(1-hydroxypropan-2-yl)pyridin-3-yl)methylamino)-1-phenylbutan-2-yl)-N3-methyl-N3-((4-methylthiazol-2-yl)methyl)isophthalamide], the Ki at memapsin 2 (fluorogenic substrate FS-2) was less than 300 nM.
Regarding `CC(C)c1cncc(CNC[C@@H](O)[C@H](Cc2ccccc2)NC(=O)c2cccc(C(=O)N(C)Cc3nc(Br)cs3)c2)c1` [Compound 315, N1-((4-bromothiazol-2-yl)methyl)-N3-((2S,3R)-3-hydroxy-4-((5-isopropylpyridin-3-yl)methylamino)-1-phenylbutan-2-yl)-N1-methylisophthalamide], the Ki at memapsin 2 (fluorogenic substrate FS-2) is less than 300 nM.
The same measure, in the same setting: under `CC(C)c1cncc(CNC[C@@H](O)[C@H](Cc2ccccc2)NC(=O)c2cccc(C(=O)N(C)Cc3nc(CO)cs3)c2)c1` [Compound 316, N1-((2S,3R)-3-hydroxy-4-((5-isopropylpyridin-3-yl)methylamino)-1-phenylbutan-2-yl)-N3-((4-(hydroxymethyl)thiazol-2-yl)methyl)-N3-methylisophthalamide] stands less than 300 nM; under `Cc1csc(CN(C)C(=O)c2cc(C(=O)N[C@@H](Cc3ccccc3)[C@H](O)CNCc3cccc(C(F)(F)F)c3)cc(-c3cccc(N(C)C(=O)OC(C)(C)C)c3)c2)n1` [Compound 317, tert-butyl 3′-((2S,3R)-3-hydroxy-1-phenyl-4-(3-(trifluoromethyl)benzylamino)butan-2-ylcarbamoyl)-5′-(methyl((4-methylthiazol-2-yl)methyl)carbamoyl)biphenyl-3-yl(methyl)carbamate], less than 300 nM.
Consider `CC(C)c1cncc(CNC[C@@H](O)[C@H](Cc2ccccc2)NC(=O)c2cccc(C(=O)N(C)Cc3nccs3)c2)c1` [Compound 318, N1-((2S,3R)-3-hydroxy-4-((5-isopropylpyridin-3-yl)methylamino)-1-phenylbutan-2-yl)-N3-methyl-N3-(thiazol-2-ylmethyl)isophthalamide], for which, on memapsin 2 (fluorogenic substrate FS-2), the Ki is less than 300 nM.
Consider `C=C(C)c1cncc(CNC[C@@H](O)[C@H](Cc2ccccc2)NC(=O)c2cccc(C(=O)N(C)Cc3nc(CO)cs3)c2)c1` [Compound 319, N1-((2S,3R)-3-hydroxy-1-phenyl-4-((5-(prop-1-en-2-yl)pyridin-3-yl)methylamino)butan-2-yl)-N3-((4-(hydroxymethyl)thiazol-2-yl)methyl)-N3-methylisophthalamide], for which, on memapsin 2 (fluorogenic substrate FS-2), the Ki is less than 300 nM.
Consider `CCn1cc(CNC[C@@H](O)[C@H](Cc2ccccc2)NC(=O)c2cccc(C(=O)N(C)Cc3nc(C)cs3)c2)cn1` [Compound 320, N1-((2S,3R)-4-((1-ethyl-1H-pyrazol-4-yl)methylamino)-3-hydroxy-1-phenylbutan-2-yl)-N3-methyl-N3-((4-methylthiazol-2-yl)methyl)isophthalamide], for which the Ki at memapsin 2 (fluorogenic substrate FS-2) was less than 300 nM.
Take “N3-((2S,3R)-3-hydroxy-4-(3-methoxybenzylamino)-1-phenylbutan-2-yl)-N1,4-dimethyl-N1-((4-methylthiazol-2-yl)methyl)isophthalamide and N1-((2S,3R)-3-hydroxy-4-(3-methoxybenzylamino)-1-phenylbutan-2-yl)-N3,4-dimethyl-N3-((4-methylthiazol-2-yl)methyl)isophthalamide (regioisomeric mixture) [Compound 42]”: the Ki on memapsin 2 (20 minutes pre-incubation) is more than 501 nM.

The values above are taken from US20100286145A1, “ISOPHTHALAMIDE DERIVATIVES INHIBITING BETA-SECRETASE ACTIVITY” (CoMentis, Inc., priority 2007, published 2010).
